Assay [1] has as its system Spodoptera littoralis larvae. In words: Insecticidal activity, sprayed diet (Test 1 (a)), toxicity vs parathion. The class given is in vivo, Egyptian cotton leafworm (Spodoptera littoralis). Conditions: second instar larvae; mortality 7 days after spraying; 50% mortality basis; standard parathion = 100. As for the experimental part:
(§1) The insecticidal and ovicidal activities of the compounds of the invention were assessed employing the pests, Egyptian cotton leafworm (Spodoptera littoralis, S.l.), mosquito (Aedes aegypti, A.a.) and eggs of Spodoptera littoralis, S.l.ov.
(§2) The test methods used for each species are described below. In each case the tests were conducted under normal insectary conditions (28° C.[…]; fluctuating light and humidity).
(§3) In each instance, the toxicity of the compound of the invention was compared to that of a standard pesticide (parathion), its relative toxicity then being expressed in terms of the relationship between the amount of compound of the invention and the amount of the standard pesticide required to produce the same percentage (50%) of mortality in the test insect. By assigning the standard pesticide an arbitrary rating of 100, the toxicities of the compounds of the invention were expressed in terms of the toxicity indices, which compares the toxicity of the compounds of the invention with that of the standard pesticide.
(a) Spodoptera littoralis--A solution or suspension of the test compound was made up over a range of concentrations in 10% acetone/water containing 0.025% Triton X100 (as surfactant). These solutions were sprayed using a logarithmic spraying machine onto petri dishes containing a nutritious diet on which the Spodoptera littoralis larvae had been reared. When the spray deposit had dried each dish was infested with 10 second instar larvae. Mortality assessments were made 7 days after spraying.

In another assay the test system is Aedes aegypti larvae. Put plainly: Insecticidal activity, larvae in treated water (Test 1 (b)), toxicity vs parathion. The class given is in vivo, mosquito (Aedes aegypti). Further details: key: Toxicity Index: parathion = 100; 200 = twice as active, 50 = half. Particulars: early fourth instar larvae; final mortality when all larvae emerged as adults or died; 50% mortality basis; standard parathion = 100. As to the method:
as §1, §2
as §3, with “pesticide. That is to say, a test compound having a Toxicity Index of 50 would be half as active, while one having a Toxicity Index of 200 would be twice as active as the standard pesticide.” for “pesticide.”
(b) Aedes aegypti--Several solutions of the test compound of varying concentration were prepared in acetone. 100 microliter quantities were added to 100 milliliters of tap water, the acetone being allowed to evaporate off. Ten early fourth instar larvae were placed in the test solution; after 48 hours the (surviving) larvae were fed with animal feed pellets, and the final percentage mortality assessed when all the larvae had either pupated and emerged as adults or died.

Assay [2] has as its system eggs of Spodoptera littoralis. In words: Ovicidal activity, sprayed eggs (Test 1 (c)), toxicity vs parathion. Type of assay: in vivo, Egyptian cotton leafworm (Spodoptera littoralis). Conditions: eggs less than 24 hours old; approximately five days; 50% mortality basis; standard parathion = 100. As to the method:
as §1, §2
as §3, with “pesticide. That is to say, a test compound having a Toxicity Index of 50 would be half as active, while one having a Toxicity Index of 200 would be twice as active as the standard pesticide.” for “pesticide.”
(c) Spodoptera littoralis (ovicide)--Solutions as described in (a) above were prepared. Eggs less than 24 hours old were obtained as follows. Adult Spodoptera littoralis were held in large plastic cylinders containing blotting paper on which the moths laid their batches of eggs. Egg batches containing approximately 60-70 eggs were cut from the blotting paper with a 1 cm surround. These were placed, eggs uppermost, on filter paper in the deeper half of 5 cm disposable petri dishes and each batch of eggs was then sprayed with a different test solution or the control solution. The dishes were covered until the control eggs had hatched, approximately five days. The percentage ovicidal mortality was then calculated.

Molecules are shown by their SMILES.

For the compound `O=C(NC(=O)N(SC(Cl)(Cl)Cl)c1ccc(C(F)(F)F)cc1)c1c(F)cccc1F` [Example 6, 2,6-Difluoro-N-[[[(trichloromethyl)thio]-N-[4-(trifluoromethyl)phenyl]amino]carbonyl]benzamide], the “Toxicity Index S.l.” value in assay [1] is given as 260. In addition, in the assay on Aedes aegypti larvae, the “Toxicity Index A.a.” value stood at 34. The “Toxicity Index S.l.ov.” value in assay [2] was 400.
On the same counts, the results for `O=C(NC(=O)N(Sc1ccccc1[N+](=O)[O-])c1cc(Cl)c(Oc2ccc([N+](=O)[O-])cc2)c(Cl)c1)c1c(F)cccc1F` [Example 38] are 330, 30 and 0.
On to `O=C(NC(=O)N(Sc1ccccc1[N+](=O)[O-])c1ccc(Oc2ccc(C(F)(F)F)cc2Cl)cc1)c1ccccc1Cl` [Example 35], for which, in assay [1], the “Toxicity Index S.l.” value came to 2500. For the same compound, in the assay on Aedes aegypti larvae, the “Toxicity Index A.a.” value is listed as 82. In addition, the “Toxicity Index S.l.ov.” value in assay [2] is 0.
In the case of `Cc1cccc(SN(C(=O)NC(=O)c2c(F)cccc2F)c2ccc(C(F)(F)F)cc2)c1` [Example 17], the “Toxicity Index S.l.” value in assay [1] turned out to be 260. Also, in the assay on Aedes aegypti larvae, the “Toxicity Index A.a.” value is given as 160. For the same compound, the “Toxicity Index S.l.ov.” value in assay [2] was found to be 2800.
The matching figures for `O=C(NC(=O)N(Sc1ccc(Cl)cc1)c1ccc(Oc2ccc(C(F)(F)F)cc2Cl)cc1)c1ccccc1Cl` [Example 30]: 670, 220 and 0.
For `O=C(NC(=O)N(Sc1ccc(Cl)cc1)c1ccc(Cl)cc1)c1c(F)cccc1F` [Example 12], the “Toxicity Index S.l.” value in assay [1] is given as 17. In the assay with Aedes aegypti larvae, the “Toxicity Index A.a.” value is 14.
With `Cc1cccc(SN(C(=O)NC(=O)c2c(F)cccc2F)c2ccc(Cl)cc2)c1` [Example 10], the “Toxicity Index S.l.” value in assay [1] came out at 20. For the same compound, the “Toxicity Index A.a.” value in the assay with Aedes aegypti larvae is recorded as 24. The “Toxicity Index S.l.ov.” value in assay [2] is recorded as 1400.
On the same counts, the results for `Cc1ccccc1SN(C(=O)NC(=O)c1ccccc1Cl)c1ccc(Oc2ccc(C(F)(F)F)cc2Cl)cc1` [Example 31] are 960, 240 and 0.
On the same counts, the results for `O=C(NC(=O)N(Sc1ccc([N+](=O)[O-])cc1[N+](=O)[O-])c1ccc(Cl)cc1)c1c(F)cccc1F` [Example 13] are 35, 100 and 1800.
The matching figures for `O=C(NC(=O)N(Sc1ccc([N+](=O)[O-])cc1[N+](=O)[O-])c1ccc(OC(F)(F)F)cc1)c1ccccc1Cl` [Example 2, 2-Chloro-N-[[[4-(trifluoromethoxy)phenyl]-N-[(2,4-dinitrophenyl)thio]amino]carbonyl]benzamide]: 150, 82 and 3300.
With `O=C(NC(=O)N(Sc1ccc(Cl)cc1)c1ccc(C(F)(F)F)cc1)c1c(F)cccc1F` [Example 27], the “Toxicity Index S.l.” value in assay [1] stood at 220. In addition, the “Toxicity Index A.a.” value in the assay on Aedes aegypti larvae was found to be 21. For the same compound, the “Toxicity Index S.l.ov.” value in assay [2] amounted to 2200.
As for `O=C(NC(=O)N(Sc1ccc(Br)cc1)c1ccc(Cl)cc1)c1c(F)cccc1F` [Example 37], the “Toxicity Index S.l.” value in assay [1] is 51. Further, in the assay with Aedes aegypti larvae, the “Toxicity Index A.a.” value amounted to 26. In addition, the “Toxicity Index S.l.ov.” value in assay [2] was 850.
As for `O=C(NC(=O)N(Sc1ccc([N+](=O)[O-])cc1)c1ccc(OC(F)(F)F)cc1)c1ccccc1Cl` [Example 24], the “Toxicity Index S.l.” value in assay [1] stood at 54. The “Toxicity Index A.a.” value in the assay on Aedes aegypti larvae is on record as 31. For the same compound, the “Toxicity Index S.l.ov.” value in assay [2] is recorded as 11.
The matching figures for `Cc1ccccc1SN(C(=O)NC(=O)c1ccccc1Cl)c1ccc(OC(F)(F)F)cc1` [Example 4, 2-Chloro-N-[[[4-(trifluoromethoxy)phenyl]-N-[(2-methylphenyl)thio]amino]carbonyl]benzamide]: 110, 77 and 2200.
On the same counts, the results for `O=C(NC(=O)N(Sc1ccc([N+](=O)[O-])cc1[N+](=O)[O-])c1ccc(C(F)(F)F)cc1)c1c(F)cccc1F` [Example 22] are 220, 51 and 2300.
Consider `CC(C)(C)c1ccc(SN(C(=O)NC(=O)c2c(F)cccc2F)c2ccc(Cl)cc2)cc1` [Example 36], for which, in assay [1], the “Toxicity Index S.l.” value was 42. Besides, the “Toxicity Index A.a.” value in the assay with Aedes aegypti larvae was 22. Also, in assay [2], the “Toxicity Index S.l.ov.” value was 0.
On to `O=C(NC(=O)N(Sc1ccccc1)c1ccc(C(F)(F)F)cc1)c1c(F)cccc1F` [Example 15], for which, in assay [1], the “Toxicity Index S.l.” value is reported as 170. For the same compound, in the assay on Aedes aegypti larvae, the “Toxicity Index A.a.” value worked out at 50. Moreover, the “Toxicity Index S.l.ov.” value in assay [2] is listed as 1800.
The matching figures for `O=C(NC(=O)N(SC(Cl)(Cl)Cl)c1ccc(Cl)cc1)c1c(F)cccc1F` [Example 14]: 10, 6 and 560.
Consider `Cc1ccc(SN(C(=O)NC(=O)c2c(F)cccc2F)c2ccc(C(F)(F)F)cc2)cc1` [Example 18], for which the “Toxicity Index S.l.” value in assay [1] is listed as 300. Besides, in the assay on Aedes aegypti larvae, the “Toxicity Index A.a.” value worked out at 170. Further, the “Toxicity Index S.l.ov.” value in assay [2] was 2300.
The matching figures for `O=C(NC(=O)N(SC(Cl)(Cl)Cl)c1ccc(OC(F)(F)F)cc1)c1ccccc1Cl` [Example 25]: 140, 28 and 1300.
On the same counts, the results for `O=C(NC(=O)N(Sc1ccccc1[N+](=O)[O-])c1ccc(C(F)(F)F)cc1)c1c(F)cccc1F` [Example 20] are 160, 180 and 1800.
The matching figures for `CC(C)c1ccccc1SN(C(=O)NC(=O)c1ccccc1Cl)c1ccc(OC(F)(F)F)cc1` [Example 32]: 88, 28 and 2000.
On to `CC(C)(C)c1ccc(SN(C(=O)NC(=O)c2c(F)cccc2F)c2ccc(C(F)(F)F)cc2)cc1` [Example 26], for which, in assay [1], the “Toxicity Index S.l.” value was 580. For the same compound, the “Toxicity Index A.a.” value in the assay on Aedes aegypti larvae is on record as 82. For the same compound, the “Toxicity Index S.l.ov.” value in assay [2] worked out at 8.
As for `O=C(NC(=O)N(Sc1ccc(Br)cc1)c1ccc(C(F)(F)F)cc1)c1c(F)cccc1F` [Example 19], the “Toxicity Index S.l.” value in assay [1] worked out at 240. Further, in the assay on Aedes aegypti larvae, the “Toxicity Index A.a.” value was 10. For the same compound, the “Toxicity Index S.l.ov.” value in assay [2] is given as 1500.
Take `Cc1ccccc1SN(C(=O)NC(=O)c1c(F)cccc1F)c1ccc(Cl)cc1` [Example 9]: in assay [1], the “Toxicity Index S.l.” value was 43. For the same compound, the “Toxicity Index A.a.” value with Aedes aegypti larvae is given as 31. The “Toxicity Index S.l.ov.” value in assay [2] is listed as 1400.
`O=C(NC(=O)N(Sc1ccc([N+](=O)[O-])cc1)c1ccc(C(F)(F)F)cc1)c1c(F)cccc1F` [Example 21]: the “Toxicity Index S.l.” value in assay [1] turned out to be 96. The “Toxicity Index A.a.” value in the assay on Aedes aegypti larvae is reported as 13.
Consider `O=C(NC(=O)N(Sc1ccc([N+](=O)[O-])cc1)c1ccc(Cl)cc1)c1c(F)cccc1F` [Example 28], for which the “Toxicity Index S.l.” value in assay [1] was 54. The “Toxicity Index A.a.” value in the assay on Aedes aegypti larvae is reported as 6. The “Toxicity Index S.l.ov.” value in assay [2] is recorded as 720.
As for `Cc1ccccc1SN(C(=O)NC(=O)c1c(F)cccc1F)c1ccc(C(F)(F)F)cc1` [Example 16], the “Toxicity Index S.l.” value in assay [1] worked out at 550. For the same compound, the “Toxicity Index S.l.ov.” value in assay [2] is given as 2700.
